This is an account of results in patent US5229109A, “Low toxicity interleukin-2 analogues for use in immunotherapy” (priority 1992, dated 1993).

Assay [1] has as its system peripheral blood mononuclear cells (TNF-α secretion). The assay is described as follows: TNF-α secretion by PBMC, ELISA of LAK culture supernatants. The class given is cell-based, human. As to conditions: for TNF-α decreased: maximal decrease vs native IL-2, supernatants at 24 hour intervals up to 7 days. As to the method: (§1) The abilities of the same concentrations of IL-2 and the analogues to stimulate peripheral blood mononuclear cells to secrete IL-1β and TNF-α in vitro were first compared. At 24 hour intervals up to 7 days, the LAK culture supernatants from the above-described experiment were collected and tested for IL-1β and TNF-α content using ELISA methodology. Commercially available ELISA kits were purchased from R & D Systems (TNF-α and TNF-β ), Immunotech (IL-1α and IL-1β), and Endogen (IFN-γ). The ELISAs were performed according to the protocols supplied by the manufacturer.
(§2) Fresh peripheral blood mononuclear cells (PBMC) obtained from leukopharesis of normal human donors were isolated over a Ficoll-Hypaque gradient. […] Non-adherent cells were tested for cytotoxicity against Daudi targets by a 4 hour ^51 Cr release assay, with specific lysis being presented as the mean of triplicate values. Cell-free supernatants from 3 day PBMC cultures were analyzed by ELISA for cytokine content.
In general terms: In an ELISA, binding on a coated surface is turned into a signal by an enzyme label.

The subject of another assay is Daudi targets. Nature of the assay: LAK generation, 4 hour 51Cr release cytotoxicity assay. Type of assay: cell-based, human. Particulars: 100:1 effector:target ratio; 0.5 nM native IL-2 or 1 nM mutants. As for the experimental part:
The abilities of optimal concentrations of IL-2 and the analogues to stimulate peripheral blood mononuclear cells to generate lymphokine activated killing (LAK) in vitro were next compared.
as §2

In assay [2] the target is T1, intermediate receptor p75 (Homo sapiens, UniProt P14784).
T1 sequence (P14784 27-551): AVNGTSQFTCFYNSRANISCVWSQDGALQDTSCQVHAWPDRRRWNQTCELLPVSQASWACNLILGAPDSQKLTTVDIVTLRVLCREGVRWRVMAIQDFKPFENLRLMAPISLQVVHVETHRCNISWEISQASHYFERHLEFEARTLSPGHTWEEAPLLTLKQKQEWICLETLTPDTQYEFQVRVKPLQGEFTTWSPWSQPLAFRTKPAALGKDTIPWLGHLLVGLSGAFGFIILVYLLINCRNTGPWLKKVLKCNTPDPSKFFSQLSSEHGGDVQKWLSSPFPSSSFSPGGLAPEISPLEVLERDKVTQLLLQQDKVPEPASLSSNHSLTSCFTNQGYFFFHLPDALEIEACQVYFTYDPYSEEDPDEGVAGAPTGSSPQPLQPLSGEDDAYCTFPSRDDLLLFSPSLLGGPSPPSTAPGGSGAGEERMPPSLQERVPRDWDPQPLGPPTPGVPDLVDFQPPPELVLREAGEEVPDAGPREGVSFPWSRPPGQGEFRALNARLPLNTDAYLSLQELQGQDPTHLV
T1 sequence (P31785 23-369 partner): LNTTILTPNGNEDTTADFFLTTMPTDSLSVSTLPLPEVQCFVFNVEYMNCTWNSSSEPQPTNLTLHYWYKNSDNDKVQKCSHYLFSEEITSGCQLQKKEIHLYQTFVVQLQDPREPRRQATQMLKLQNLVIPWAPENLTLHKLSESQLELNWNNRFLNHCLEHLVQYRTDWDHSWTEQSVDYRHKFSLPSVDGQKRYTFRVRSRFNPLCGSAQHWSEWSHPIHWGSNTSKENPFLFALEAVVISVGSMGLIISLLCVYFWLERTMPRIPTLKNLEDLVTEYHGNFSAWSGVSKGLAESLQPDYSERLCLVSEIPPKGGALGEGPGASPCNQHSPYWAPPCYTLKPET
Particulars: Sauve et al., 1991; cited from earlier work.

The next assay deals with T2, IL-2 receptor p75 (Homo sapiens, UniProt P14784).
T2 construct: Each assay contained approximately 6×10^5 cells; endogenous in cells
T2 sequence (P14784 27-551): T1 sequence (P14784 27-551)
T2 sequence (P31785 23-369 partner): T1 sequence (P31785 23-369 partner)
The assay is described as follows: IL-2 specific binding assay, intermediate affinity receptor. As to the method: The cells were then incubated for 1 hour at 37° C. and the washing procedure was repeated three times. […] Nonspecific binding was determined by inclusion of 50 nM unlabeled human rIL-2 in the assay. Incubations were carried out in duplicate or triplicate for 20 minutes at 37° C.

The target in assay [3] is T3, low affinity receptor p55 (Homo sapiens, UniProt P01589).
T3 sequence (P01589 22-272): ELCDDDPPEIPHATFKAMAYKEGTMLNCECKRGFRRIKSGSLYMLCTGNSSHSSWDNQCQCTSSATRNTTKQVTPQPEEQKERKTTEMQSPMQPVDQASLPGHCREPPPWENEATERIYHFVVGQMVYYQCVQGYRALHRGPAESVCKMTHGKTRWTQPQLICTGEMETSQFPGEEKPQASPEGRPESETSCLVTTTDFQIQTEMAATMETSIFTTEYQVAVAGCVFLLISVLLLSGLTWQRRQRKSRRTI
As to conditions: Sauve et al., 1991; cited from earlier work.

The subject of assay [4] is IL-2 receptor p55 on PBMC. Nature of the assay: FACS analysis of p55 expression on cultured PBMC. The class given is cell-based, human. Particulars: cultures stimulated for 72 hours. As for the experimental part: Cultured PBMC were washed with PBS, 1% bovine serum albumin (BSA), and 0.1% sodium azide. To approximately one million cells, FITC-labelled monoclonal antibody against IL-2 receptor p55 or a non-specific control mouse IgG (Becton-Dickinson) was added. Following incubation for 30 minutes, the cells were washed twice using a Sorvall cell washer 2L, then fixed in PBS and 1% paraformaldehyde. The cells were then analyzed on Becton-Dickinson FACScan and results were presented as per cent of gated cells positive for p55 after subtraction of non-specific background fluorescence.
Background: Flow cytometry measures light scatter and fluorescence of single cells or particles in a stream.

In assay [5] the test system is peripheral blood mononuclear cells (IL-1β secretion). Nature of the assay: IL-1β secretion by PBMC, ELISA of LAK culture supernatants. As to conditions: for IL-1β secretion decreased: maximal decrease vs native IL-2, supernatants at 24 hour intervals up to 7 days. Type of assay: cell-based, human. As for the experimental part:
as §1, §2

[6] abbreviates: all time points, p<0.05, 3-way ANOVA.

In the case of “F42K: recombinant human IL-2 analogue, Phenylalanine (F) at position 42→Lysine (K)”, in assay [1] (setting [6]), the “TNF-α compared to that produced in response to native IL-2” value is recorded as “significantly decreased”. The TNF-α decreased in assay [1] is listed as not above 77%. In addition, in the assay with Daudi targets, the “% maximal specific lysis” value was 54%. Further, the “affinity for the intermediate receptor p75” value in assay [2] is given as “maintained their affinity”. The “ability to bind IL-2 receptor p75” value with IL-2 receptor p75 was “maintain their ability to bind”. In addition, the “binding to the low affinity receptor p55” value in assay [3] was “could no longer bind”. Also, in assay [4], the “percentage of cells expressing p55” value is listed as 30% and the “percentage of cells expressing p55 doubled” value was “doubled”. Also, the “IL-1β compared to that produced in response to native IL-2” value in assay [5] (setting [6]) is on record as “significantly decreased”. Also, the IL-1β secretion decreased result in assay [5] is “up to 43%”.
Substance R38A came in with a TNF-α decreased in assay [1] not above 66%. For the same substance, in the assay with Daudi targets, the “% maximal specific lysis” value stood at 55%. The “affinity for the intermediate receptor p75” value in assay [2] is recorded as “maintained their affinity”. For the same substance, the “ability to bind IL-2 receptor p75” value with IL-2 receptor p75 was “maintain their ability to bind”. Also, the “binding to the low affinity receptor p55” value in assay [3] is on record as “could no longer bind”. In addition, the IL-1β secretion decreased in assay [5] is reported as not above 28%.
